Columns and labels:
sedge, umbrella = assay: Test B flooded paddy test; format: in vivo, Cyperus difformis; details: 500 g ai/ha, Flood; scale of 0 to 100 where 0 is no effect and 100 is complete control
Method in brief: (§1)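 In-water application to pots flooded 3 cm deep, plants at 2-leaf stage. Held in greenhouse 13–15 days at constant flood depth. Scored 0–100 by eye against controls.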

giant foxtail = assay: Test A pre-/postemergence herbicide test; format: in vivo, Setaria faberii
Method in brief: (§2)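 Seeds in loam–sand blend received preemergence directed soil spray; separately, plants 2–10 cm at one- to two-leaf stage received postemergence spray, both with test chemicals in non-phytotoxic solvent with surfactant. After ~10 days in greenhouse, injury rated visually against untreated controls, 0 (no effect) to 100 (complete control).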

ducksalad = assay: Test B flooded paddy test; format: in vivo, Heteranthera limosa; details: 500 g ai/ha, Flood; scale of 0 to 100 where 0 is no effect and 100 is complete control
Method in brief: as §1

wheat = assay: Test A pre-/postemergence herbicide test; format: in vivo, Triticum aestivum; details: Postemergence
Method in brief: as §2

ragweed = assay: Test A pre-/postemergence herbicide test; format: in vivo, Ambrosia elatior
Method in brief: as §2

barnyardgrass [1] = assay: Test B flooded paddy test; format: in vivo, Echinochloa crus-galli; details: 500 g ai/ha, Flood; scale of 0 to 100 where 0 is no effect and 100 is complete control
Method in brief: as §1

ryegrass, Italian = assay: Test A pre-/postemergence herbicide test; format: in vivo, Lolium multiflorum
Method in brief: as §2

blackgrass = assay: Test A postemergence herbicide test; format: in vivo, Alopecurus myosuroides
Method in brief: (§3)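 Ratings compare treated with untreated plants roughly 10 days after a postemergence application made at the one- to two-leaf stage. Scoring uses 0–100, where 0 means no effect and 100 complete control.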

rice = assay: Test B flooded paddy test; format: in vivo, Oryza sativa; details: 500 g ai/ha, Flood; scale of 0 to 100 where 0 is no effect and 100 is complete control
Method in brief: as §1

pigweed = assay: Test A pre-/postemergence herbicide test; format: in vivo, Amaranthus retroflexus
Method in brief: as §2

kochia = assay: Test A pre-/postemergence herbicide test; format: in vivo, Kochia scoparia
Method in brief: as §2

corn = assay: Test A pre-/postemergence herbicide test; format: in vivo, Zea mays; details: Postemergence
Method in brief: as §2

barnyardgrass [2] = assay: Test A pre-/postemergence herbicide test; format: in vivo, Echinochloa crus-galli
Method in brief: as §2

galium = assay: Test A postemergence herbicide test; format: in vivo, Galium aparine
Method in brief: as §3

[3] = 125 g ai/ha, visual rating, 0 to 100 scale, 0 no effect, 100 complete control, approximately 10 days, preemergence
[4] = Postemergence, 125 g ai/ha, 0 to 100 scale, 0 no effect, 100 complete control
[5] = preemergence, 500 g ai/ha, 0 to 100 scale
[6] = 125 g ai/ha, 0 to 100 scale, 0 no effect, 100 complete control
[7] = Postemergence, 125 g ai/ha, visual rating on 0 to 100 scale (0 no effect, 100 complete control), approx. 10 days
[8] = Postemergence, 500 g ai/ha, 0 to 100 scale (0 no effect, 100 complete control)
[9] = Preemergence, 125 g ai/ha, 0 to 100 scale where 0 is no effect and 100 is complete control
[10] = Preemergence, 500 g ai/ha, visual rating on 0 to 100 scale (0 no effect, 100 complete control)
[11] = 125 g ai/ha, visual rating on 0 to 100 scale (0 no effect, 100 complete control), approx. 10 days
[12] = 500 g ai/ha, 0 to 100 scale (0 no effect, 100 complete control)
[13] = Postemergence, 125 g ai/ha, 0 to 100 scale, 0 is no effect, 100 is complete control
[14] = preemergence, 500 g ai/ha, 0 to 100 scale, 0 is no effect and 100 is complete control
[15] = 125 g ai/ha, 0 to 100 scale, 0 is no effect, 100 is complete control

With `Cc1cc(C2CNC(=O)C2C(=O)Nc2ccc(F)cc2F)ccc1F` (racemic) [Compound 140] the “Plant response rating, Sedge, Umbrella” value (sedge, umbrella) was 0, the “Plant response rating, Foxtail, Giant” value (giant foxtail; [3]) was 50 and the “Plant response rating, Foxtail, Giant” value (giant foxtail; [4]) was 0. The “Foxtail, Giant plant response rating (0 to 100 scale, 0 is no effect, 100 is complete control)” value (giant foxtail; Postemergence, 500 g ai/ha) was 50, the “Plant response rating, Foxtail, Giant” value (giant foxtail; [5]) was 90 and the “Plant response rating, Ducksalad” value (ducksalad) was 100. The “Plant response rating, Wheat” value (wheat; [6]) was 0, the “Wheat plant response rating (0 to 100 scale, 0 is no effect, 100 is complete control)” value (wheat; 500 g ai/ha) was 0 and the “Plant response rating, Ragweed” value (ragweed; [3]) was 0. The “Plant response rating, Ragweed” value (ragweed; [4]) was 0, the “Ragweed plant response rating (0 to 100 scale, 0 is no effect, 100 is complete control)” value (ragweed; Postemergence, 500 g ai/ha) was 0 and the “Plant response rating, Ragweed” value (ragweed; [5]) was 0. For the same molecule, the “Plant response rating, Barnyardgrass” value (barnyardgrass [1]) was 70, the “Plant response rating, Ryegrass, Italian” value (ryegrass, Italian; [3]) was 0 and the “Plant response rating, Ryegrass, Italian” value (ryegrass, Italian; [4]) was 0. The “Ryegrass, Italian plant response rating (0 to 100 scale, 0 is no effect, 100 is complete control)” value (ryegrass, Italian; Postemergence, 500 g ai/ha) was 0, the “Plant response rating, Ryegrass, Italian” value (ryegrass, Italian; [5]) was 0 and the “Plant response rating, Blackgrass” value (blackgrass; [6]) was 0. The “Blackgrass plant response rating (0 to 100 scale, 0 is no effect, 100 is complete control)” value (blackgrass; 500 g ai/ha) was 20, the “Plant response rating, Rice” value (rice) was 0 and the “Plant response rating, Pigweed” value (pigweed; [3]) was 0. The “Plant response rating, Pigweed” value (pigweed; [4]) was 0, the “Pigweed plant response rating (0 to 100 scale, 0 is no effect, 100 is complete control)” value (pigweed; Postemergence, 500 g ai/ha) was 0 and the “Plant response rating, Pigweed” value (pigweed; [5]) was 0. For the same molecule, the “Plant response rating, Kochia” value (kochia; [3]) was 0, the “Plant response rating, Kochia” value (kochia; [4]) was 0 and the “Kochia plant response rating (0 to 100 scale, 0 is no effect, 100 is complete control)” value (kochia; Postemergence, 500 g ai/ha) was 0. The “Plant response rating, Kochia” value (kochia; [5]) was 0, the “Plant response rating, Corn” value (corn; [6]) was 0 and the “Corn plant response rating (0 to 100 scale, 0 is no effect, 100 is complete control)” value (corn; 500 g ai/ha) was 0. For the same molecule, the “Plant response rating, Barnyardgrass” value (barnyardgrass [2]; [3]) was 80, the “Plant response rating, Barnyardgrass” value (barnyardgrass [2]; [4]) was 70 and the “Barnyardgrass plant response rating (0 to 100 scale, 0 is no effect, 100 is complete control)” value (barnyardgrass [2]; Postemergence, 500 g ai/ha) was 80. For the same molecule, the “Plant response rating, Barnyardgrass” value (barnyardgrass [2]; preemergence, 500 g ai/ha, 0 to 100 scale (0 no effect, 100 complete control)) was 90, the “Plant response rating, Galium” value (galium; [6]) was 0 and the “Galium plant response rating (0 to 100 scale, 0 is no effect, 100 is complete control)” value (galium; 500 g ai/ha) was 30.
`O=C1NCC(c2ccc(Br)c(Br)c2)C1C(=O)Nc1ccc(F)cc1F` (stereo not drawn) [Compound 340] was tested, and the “Plant response rating, Sedge, Umbrella” value (sedge, umbrella) was 0, the “Plant response rating, Foxtail, Giant” value (giant foxtail; [7]) was 30 and the “Plant response rating, Foxtail, Giant” value (giant foxtail; [8]) was 90. The “Plant response rating, Foxtail, Giant” value (giant foxtail; [9]) was 80, the “Foxtail, Giant plant response rating” value (giant foxtail; [10]) was 90 and the “Plant response rating, Ducksalad” value (ducksalad) was 50. For the same molecule, the “Plant response rating, Wheat” value (wheat; [11]) was 0, the “Plant response rating, Ragweed” value (ragweed; [7]) was 0 and the “Plant response rating, Ragweed” value (ragweed; [9]) was 0. For the same molecule, the “Ragweed plant response rating” value (ragweed; [10]) was 0, the “Plant response rating, Barnyardgrass” value (barnyardgrass [1]) was 0 and the “Plant response rating, Ryegrass, Italian” value (ryegrass, Italian; [7]) was 0. The “Plant response rating, Ryegrass, Italian” value (ryegrass, Italian; [9]) was 0, the “Ryegrass, Italian plant response rating” value (ryegrass, Italian; [10]) was 20 and the “Plant response rating, Blackgrass” value (blackgrass; [11]) was 0. For the same molecule, the “Plant response rating, Blackgrass” value (blackgrass; [12]) was 20, the “Plant response rating, Rice” value (rice) was 0 and the “Plant response rating, Pigweed” value (pigweed; [7]) was 0. For the same molecule, the “Plant response rating, Pigweed” value (pigweed; [9]) was 0, the “Pigweed plant response rating” value (pigweed; [10]) was 0 and the “Plant response rating, Kochia” value (kochia; [7]) was 0. For the same molecule, the “Plant response rating, Kochia” value (kochia; [9]) was 0, the “Kochia plant response rating” value (kochia; [10]) was 0 and the “Plant response rating, Corn” value (corn; [11]) was 0. For the same molecule, the “Plant response rating, Corn” value (corn; [12]) was 0, the “Plant response rating, Barnyardgrass” value (barnyardgrass [2]; [7]) was 30 and the “Plant response rating, Barnyardgrass” value (barnyardgrass [2]; [8]) was 50. The “Plant response rating, Barnyardgrass” value (barnyardgrass [2]; [9]) was 60, the “Barnyardgrass plant response rating” value (barnyardgrass [2]; [10]) was 80 and the “Plant response rating, Galium” value (galium; [11]) was 0.
`O=C1NCC(c2ccc(Cl)c(Cl)c2)C1C(=O)Nc1ccccc1Cl` (racemic) [Compound 273] was tested, and the “Plant response rating, Sedge, Umbrella” value (sedge, umbrella) was 0, the “Plant response rating, Foxtail, Giant” value (giant foxtail; [13]) was 20 and the “Plant response rating, Foxtail, Giant” value (giant foxtail; [8]) was 70. The “Plant response rating, Foxtail, Giant” value (giant foxtail; [9]) was 90, the “Plant response rating, Foxtail, Giant” value (giant foxtail; [14]) was 90 and the “Plant response rating, Ducksalad” value (ducksalad) was 70. The “Plant response rating, Wheat” value (wheat; [11]) was 0, the “Plant response rating, Wheat” value (wheat; [12]) was 0 and the “Plant response rating, Ragweed” value (ragweed; [7]) was 0. The “Plant response rating, Ragweed” value (ragweed; [8]) was 0, the “Plant response rating, Ragweed” value (ragweed; [9]) was 0 and the “Plant response rating, Ragweed” value (ragweed; [14]) was 0. For the same molecule, the “Plant response rating, Barnyardgrass” value (barnyardgrass [1]) was 0, the “Plant response rating, Ryegrass, Italian” value (ryegrass, Italian; [7]) was 0 and the “Plant response rating, Ryegrass, Italian” value (ryegrass, Italian; [8]) was 0. The “Plant response rating, Ryegrass, Italian” value (ryegrass, Italian; [9]) was 0, the “Plant response rating, Ryegrass, Italian” value (ryegrass, Italian; [14]) was 0 and the “Plant response rating, Blackgrass” value (blackgrass; [15]) was 0. The “Plant response rating, Blackgrass” value (blackgrass; [12]) was 0, the “Plant response rating, Rice” value (rice) was 0 and the “Plant response rating, Pigweed” value (pigweed; [7]) was 0. The “Plant response rating, Pigweed” value (pigweed; [8]) was 0, the “Plant response rating, Pigweed” value (pigweed; [9]) was 0 and the “Plant response rating, Pigweed” value (pigweed; [14]) was 0. The “Plant response rating, Kochia” value (kochia; [13]) was 0, the “Plant response rating, Kochia” value (kochia; [8]) was 0 and the “Plant response rating, Kochia” value (kochia; [9]) was 0. For the same molecule, the “Plant response rating, Kochia” value (kochia; [14]) was 70, the “Plant response rating, Corn” value (corn; [15]) was 0 and the “Plant response rating, Corn” value (corn; [12]) was 0. For the same molecule, the “Plant response rating, Barnyardgrass” value (barnyardgrass [2]; [13]) was 10, the “Plant response rating, Barnyardgrass” value (barnyardgrass [2]; [8]) was 30 and the “Plant response rating, Barnyardgrass” value (barnyardgrass [2]; [9]) was 50. For the same molecule, the “Plant response rating, Barnyardgrass” value (barnyardgrass [2]; [14]) was 80, the “Plant response rating, Galium” value (galium; [15]) was 0 and the “Plant response rating, Galium” value (galium; [12]) was 50.

Reference: US10294202B2, “Pyrrolidinones as herbicides” (FMC Corporation, priority 2013, dated 2019)
